{"source": "patent US20060127400A1", "about": "“Activation of regulatory T cells by alpha-melanocyte stimulating hormone” (THE SCHEPENS EYE RESEARCH INSTITUTE, INC., priority 1999, published 2006)", "system": "CD3ε", "test": "tyrosine phosphorylation of CD3ε, immunoprecipitation and anti-phosphotyrosine immunoblot", "type": "cell-based, mouse", "protocol": "Immunoprecipitation and Immunoblotting. Enriched primed T cells (2×10^6 cells) in a 24 well Corning plate were TCR-stimulated with 2C11 in the presence of α-MSH (30 pg/ml) under serum-free conditions for 15 minutes. The T cells were collected, placed in a microcentrifuge tube and washed once with 10 mM Tris buffered saline (TBS) and lysed for 30 minutes in 100 μl of ice cold lysate buffer (10 mM TBS, 1% NP-40, 0.5% sodium deoxycholate, 0.1% SDS, 100 μg/ml phenylmethylsulfonyl fluoride (PMSF), 60 μg/ml Aprotinin, and 1 mM sodium orthovanadate). The cells were passed through a 21 gauge needles three times, and an additional 2 μl of 10 mg/ml PMSF was added. The tubes were incubated for an additional 30 minutes on ice and were centrifuged for 20 minutes, 4° C., 13,000×g. The supernatant was collected and used as total cellular lysate. The protein concentration was measured, and added to equal amounts of protein lysate were 20 μg/ml anti-CD3ζ antibody, or anti-CD3ε antibody plus rabbit anti-hamster IgG antibody and incubated overnight at 4° C. The rabbit anti-hamster IgG was needed for the CD3ε immunoprecipitation, since much of the CD3ε was bound by 2C11 a hamster anti-mouse […] and hamster antibody weakly binds protein-G. Protein-G sepharose beads (Pharmacia, Piscataway, N.J.) were added to the antibody containing lysates and incubated for 1 hour at room temperature with end over end agitation. The beads were centrifuged and washed 4 times with 10 mM TBS containing 0.5% sodium deoxycholate. After the final wash the beads were resuspended in 20 μl of distilled water and 20 μl non-reducing SDS Tris-glycine sample buffer (Novex, San Diego, Calif.), boiled for 5 minutes and applied into two wells (20 μl) of a 8-16% Tris-glycine polyacrylamide gel (Novex).\nFollowing electrophoresis in a Novex Xcell II minicell and blot module, the proteins were transferred from the gel onto a nitrocellulose membrane (Novex) by electroblotting. The membrane was blocked with 1% BSA in 0.01 M TBS for 1 hour room temperature. […] Membranes were digitally photographed and analyzed using NIH Image software to integrate the band intensities relative to band area minus background. […]\nThe enriched primed T cells (2×10^6 cells) were incubated with anti-CD3 in the presence of α-MSH (30 pg/ml) for 15 minutes. […] The immunoprecipitates were analyzed by non-reducing SDS-PAGE (on a 8-16% gradient gel), followed by transfer to a nitrocellulose filter and immunoblotting with anti-phosphotyrosine antibody: (1) Unstimulated primed T cells treated with α-MSH; (2) Unstimulated primed T cells incubated in media alone; (3) Enriched primed T cells TCR-stimulated in the absence of α-MSH; (4) Enriched primed T cells TCR-stimulated in the presence of α-MSH. […]", "note": "No end group written: not given here.", "data": [{"substance": "α-melanocyte stimulating hormone (SYSMEHFRWGKPV; not fully specified; ends and bridges not checked; UniProt P01189 138-150, looked up) [α-MSH, synthetic α-MSH (Peninsula Laboratories); thirteen-amino acid neuropeptide derived from POMC]", "values": [{"measurement": "level of tyrosine phosphorylation of CD3ε chains", "setting": "TCR-stimulated and unstimulated primed T cells, Example I (FIG. 7B)", "value": "no effect"}, {"measurement": "relative intensity of phosphotyrosine band, CD3ε", "setting": "TCR-stimulated primed T cells, α-MSH 30 pg/ml, 15 minutes (lane 4; without α-MSH 10)", "value": 10}, {"measurement": "overall level of tyrosine phosphorylation of CD3ε", "setting": "TCR-stimulated primed T cells, α-MSH 30 pg/ml, 15 minutes, Example III (FIG. 18A)", "value": "no significant change"}, {"measurement": "relative intensity of phosphotyrosine band, CD3ε", "setting": "unstimulated primed T cells, α-MSH 30 pg/ml, 15 minutes (lane 1; media alone 1)", "value": 1}]}]}
